Results: PubChem BioAssay AID248 (DTP/NCI, 2004)
“And” between values parts separate entries of the source, which are not always exact repeats. Identical values can stand only once. Inconclusive results and toxic doses are left out. Cut-off read from the data, not from the text of the source: active = T/C of 150% or more; inactive = T/C below 125%.

System: L1210 leukemia ip in BDF1 mice, survival T/C
Assay: NCI In Vivo Anticancer Drug Screen. Data for tumor model L1210 Leukemia (intraperitoneal) in B6D2F1 (BDF1) mice
Conditions: endpoint: mean survival time, higher = longer survival
Method in brief: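 Transplanted-tumor mice were given test agent; controls received vehicle only. Survival readings from the two groups were divided (treated over control).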

[1] = dose: 25.0 mg/kg/injection, schedule: Q04DX003 (ip), vehicle: saline with Tween-80
[2] = dose: 100.0 mg/kg/injection, schedule: Q01DX009 (ip), vehicle: Klucel (hydroxypropylcellulose) (HPC)
[3] = dose: 100.0 mg/kg/injection, schedule: Q04DX003 (ip), vehicle: Klucel (hydroxypropylcellulose) (HPC)
[4] = dose: 200.0 mg/kg/injection, schedule: Q01DX009 (ip), vehicle: Klucel (hydroxypropylcellulose) (HPC)
[5] = dose: 200.0 mg/kg/injection, schedule: Q04DX003 (ip), vehicle: Klucel (hydroxypropylcellulose) (HPC)
[6] = dose: 400.0 mg/kg/injection, schedule: Q01DX009 (ip), vehicle: Klucel (hydroxypropylcellulose) (HPC)
[7] = dose: 400.0 mg/kg/injection, schedule: Q04DX003 (ip), vehicle: Klucel (hydroxypropylcellulose) (HPC)
[8] = dose: 100.0 mg/kg/injection, schedule: Q04DX002 (ip), vehicle: Klucel (hydroxypropylcellulose) (HPC)
[9] = dose: 200.0 mg/kg/injection, schedule: Q04DX002 (ip), vehicle: Klucel (hydroxypropylcellulose) (HPC)
[10] = dose: 400.0 mg/kg/injection, schedule: Q04DX002 (ip), vehicle: Klucel (hydroxypropylcellulose) (HPC)
[11] = dose: 100.0 mg/kg/injection, schedule: Q01DX001 (ip), vehicle: saline
[12] = dose: 200.0 mg/kg/injection, schedule: Q01DX001 (ip), vehicle: saline
[13] = dose: 100.0 mg/kg/injection, schedule: Q01DX009 (ip), vehicle: saline with Tween-80
[14] = dose: 200.0 mg/kg/injection, schedule: Q01DX009 (ip), vehicle: saline with Tween-80
[15] = dose: 400.0 mg/kg/injection, schedule: Q01DX009 (ip), vehicle: saline with Tween-80
[16] = dose: 100.0 mg/kg/injection, schedule: Q04DX003 (ip), vehicle: saline with Tween-80
[17] = dose: 50.0 mg/kg/injection, schedule: Q04DX003 (ip), vehicle: saline with Tween-80

Measured: T/C

CC(C)(C)C1=C(C(C)(C)C)CS(=O)(=O)C1
inactive: dose: 25.0 mg/kg/injection, schedule: Q01DX001 (ip), vehicle: saline with Tween-80 98 % of control | dose: 50.0 mg/kg/injection, schedule: Q01DX001 (ip), vehicle: saline with Tween-80 100 % of control | dose: 100.0 mg/kg/injection, schedule: Q01DX001 (ip), vehicle: saline with Tween-80 100 % of control and 107 % of control

COc1ccc(C(=O)CCC(=O)O)c(C)c1
inactive: dose: 100.0 mg/kg/injection, schedule: Q01DX009 (ip), vehicle: saline 97 % of control | dose: 200.0 mg/kg/injection, schedule: Q01DX009 (ip), vehicle: saline 101 % of control | dose: 400.0 mg/kg/injection, schedule: Q01DX009 (ip), vehicle: saline 105 % of control

CCCCCCOCC(O)CNCCN (stereo unspecified)
inactive: dose: 6.25 mg/kg/injection, schedule: Q04DX003 (ip), vehicle: saline with Tween-80 95 % of control | dose: 12.5 mg/kg/injection, schedule: Q04DX003 (ip), vehicle: saline with Tween-80 90 % of control | [1] 96 % of control

Cc1ccc(Oc2c3c(nc4ccccc24)CCCC3)cc1
inactive: [2] 104 % of control | [3] 101 % of control | [4] 98 % of control | [5] 96 % of control | [6] 96 % of control | [7] 93 % of control

O=C(CCCCCCCCC(=O)NCCBr)NCCBr
inactive: dose: 100.0 mg/kg/injection, schedule: Q01DX005 (ip), vehicle: Klucel (hydroxypropylcellulose) (HPC) 98 % of control | [8] 104 % of control | dose: 200.0 mg/kg/injection, schedule: Q01DX005 (ip), vehicle: Klucel (hydroxypropylcellulose) (HPC) 94 % of control | [9] 101 % of control | dose: 400.0 mg/kg/injection, schedule: Q01DX005 (ip), vehicle: Klucel (hydroxypropylcellulose) (HPC) 102 % of control | [10] 101 % of control

Nc1nc2nc3c(nc2c(=O)[nH]1)C(=O)N(c1ccc(C(=O)O)cc1)C3
inactive: [11] 103 % of control | [12] 103 % of control

O=C(C=C(C(F)(F)F)C(F)(F)F)c1cccc2ccccc12
inactive: dose: 12.5 mg/kg/injection, schedule: Q01DX009 (ip), vehicle: gum acacia 107 % of control | dose: 25.0 mg/kg/injection, schedule: Q01DX009 (ip), vehicle: gum acacia 100 % of control | dose: 50.0 mg/kg/injection, schedule: Q01DX009 (ip), vehicle: gum acacia 100 % of control | dose: 100.0 mg/kg/injection, schedule: Q04DX003 (ip), vehicle: gum acacia 100 % of control | dose: 200.0 mg/kg/injection, schedule: Q04DX003 (ip), vehicle: gum acacia 97 % of control | dose: 400.0 mg/kg/injection, schedule: Q04DX003 (ip), vehicle: gum acacia 91 % of control

COC1OC(CO)C(NC(N)=O)C1O (stereo unspecified)
inactive: [8] 105 % of control | [9] 105 % of control | [10] 111 % of control

CC(=O)C(C)(C)O
inactive: [13] 90 % of control | [14] 87 % of control | [15] 92 % of control

CC1(C)CN=C(c2ccc([N+](=O)[O-])cc2)O1
inactive: dose: 75.0 mg/kg/injection, schedule: Q04DX003 (ip), vehicle: Klucel (hydroxypropylcellulose) (HPC) 108 % of control | dose: 150.0 mg/kg/injection, schedule: Q04DX003 (ip), vehicle: Klucel (hydroxypropylcellulose) (HPC) 94 % of control | dose: 300.0 mg/kg/injection, schedule: Q04DX003 (ip), vehicle: Klucel (hydroxypropylcellulose) (HPC) 89 % of control

CC(C)SC(=S)Nc1ccc(Cl)c(Cl)c1
inactive: dose: 30.0 mg/kg/injection, schedule: Q04DX003 (ip), vehicle: saline 95 % of control | dose: 60.0 mg/kg/injection, schedule: Q04DX003 (ip), vehicle: saline 98 % of control | dose: 120.0 mg/kg/injection, schedule: Q04DX003 (ip), vehicle: saline 95 % of control

O=S(=O)(Nc1ccc2c3c(cccc13)CC2)c1ccccc1
inactive: [13] 92 % of control | [14] 94 % of control | [15] 103 % of control

CN(C)Cc1ncccc1OC(=O)N(c1ccccc1)c1ccccc1
inactive: dose: 12.5 mg/kg/injection, schedule: Q01DX009 (ip), vehicle: saline 97 % of control | dose: 25.0 mg/kg/injection, schedule: Q01DX009 (ip), vehicle: saline 97 % of control | dose: 50.0 mg/kg/injection, schedule: Q01DX009 (ip), vehicle: saline 100 % of control

CCN(CC)CCCNC(c1ccccc1)C(Cl)(Cl)Cl (stereo unspecified)
inactive: [11] 96 % of control

CCOc1ccc(N2CSC(=S)N(c3ccc(OCC)cc3)C2)cc1
inactive: [2] 96 % of control | [3] 92 % of control | [4] 99 % of control | [5] 92 % of control | [7] 92 % of control

O=P(N1CC1)(N1CC1)C12CC3CC(CC(C3)C1)C2
active: dose: 25.0 mg/kg/injection, schedule: Q01DX009 (ip), vehicle: saline with Tween-80 170 % of control | dose: 50.0 mg/kg/injection, schedule: Q01DX009 (ip), vehicle: saline with Tween-80 243 % of control

O=C(O)c1ccc(C(=O)O)c(O)c1
inactive: [11] 105 % of control | [12] 97 % of control | dose: 400.0 mg/kg/injection, schedule: Q01DX001 (ip), vehicle: saline 94 % of control

Cc1cccc(C)c1NC(=O)Nc1ccc(C(=O)O)c(O)c1
inactive: [2] 110 % of control | [4] 95 % of control | [6] 97 % of control

CCCCN=C(NC(=S)Nc1ccc(Cl)cc1)SCC
inactive: dose: 100.0 mg/kg/injection, schedule: Q04DX002 (ip), vehicle: saline with Tween-80 95 % of control | dose: 200.0 mg/kg/injection, schedule: Q04DX002 (ip), vehicle: saline with Tween-80 92 % of control | dose: 400.0 mg/kg/injection, schedule: Q04DX002 (ip), vehicle: saline with Tween-80 95 % of control

Cc1ccc(CCN)cc1C
inactive: dose: 25.0 mg/kg/injection, schedule: Q04DX003 (ip), vehicle: saline 103 % of control | dose: 50.0 mg/kg/injection, schedule: Q04DX003 (ip), vehicle: saline 101 % of control | dose: 100.0 mg/kg/injection, schedule: Q04DX003 (ip), vehicle: saline 101 % of control and 112 % of control

CCCCCCCC/C=C\CCCCCCCC(=O)OC
inactive: [13] 91 % of control | [16] 96 % of control | [14] 92 % of control | dose: 200.0 mg/kg/injection, schedule: Q04DX003 (ip), vehicle: saline with Tween-80 100 % of control | [15] 95 % of control | dose: 400.0 mg/kg/injection, schedule: Q04DX003 (ip), vehicle: saline with Tween-80 98 % of control

CC1(C)OCC(C2OC(=S)OC2C2COC(C)(C)O2)O1 (stereo unspecified)
inactive: dose: 50.0 mg/kg/injection, schedule: Q04DX002 (ip), vehicle: Klucel (hydroxypropylcellulose) (HPC) 93 % of control | [8] 98 % of control | [9] 104 % of control

C=C(Br)CNC(=O)OC
inactive: [1] 100 % of control | [17] 105 % of control | [16] 121 % of control

CCN(CC)CCOC(=O)/C=C/c1ccc([N+](=O)[O-])o1
inactive: dose: 50.0 mg/kg/injection, schedule: Q01DX Z (ip), vehicle: saline 103 % of control | dose: 75.0 mg/kg/injection, schedule: Q01DX Z (ip), vehicle: saline 109 % of control | dose: 113.0 mg/kg/injection, schedule: Q01DX Z (ip), vehicle: saline 112 % of control

CC1(C)CC(=O)C(C23C=CC2=C(CO)C(=O)OC3)C1 (stereo unspecified)
inactive: dose: 5.0 mg/kg/injection, schedule: Q01DX001 (ip), vehicle: saline 96 % of control | dose: 10.0 mg/kg/injection, schedule: Q01DX001 (ip), vehicle: saline 96 % of control | dose: 20.0 mg/kg/injection, schedule: Q01DX001 (ip), vehicle: saline 98 % of control | dose: 40.0 mg/kg/injection, schedule: Q01DX001 (ip), vehicle: saline 110 % of control

Cc1ccccc1SCN(CSc1ccccc1C)C(C)(C)CC(C)(C)C
inactive: dose: 100.0 mg/kg/injection, schedule: Q01DX001 (ip), vehicle: carboxymethylcellulose (CMC) 101 % of control

CC1(C)C2CCCC1(CCOC(=O)COc1cc(Cl)c(Cl)cc1Cl)C2 (stereo unspecified)
inactive: [8] 98 % of control | [9] 91 % of control | [10] 88 % of control

CN1CCC(COC(=O)C(O)(c2ccccc2)c2ccccc2)C1 (stereo unspecified)
inactive: [1] 97 % of control | [17] 94 % of control | [16] 101 % of control and 87 % of control

O=C(CC(C[N+](=O)[O-])c1ccccc1)c1ccc(Cl)cc1 (stereo unspecified)
inactive: [2] 96 % of control | [4] 90 % of control | [6] 92 % of control
